Bridge positions count the residues as written; N and C are the ends. Square brackets hold non-standard residues; d marks the D form. Peptide text beside a SMILES is read from it. I, II: the chains in the order shown. Phe(4-B(OH)2) = N[C@@H](Cc1ccc(B(O)O)cc1)C(=O)O; Dopa = N[C@@H](Cc1ccc(O)c(O)c1)C(=O)O
Tests used:
in vitro [1] = assay type: in vitro ADME; settings: calf (bovine), cells or culture medium
Protocol: Next, the stability of 2Ox in glucose containing solutions were tested since it is known that phenyl boronic acids interact with sugars.[11]2Ox was incubated in glucose solution (1 g/mL) or […] DMEM cell media (1 g/mL), which was used in the subsequent cell studies. The analysis was performed for up to 3 days and quantitative analysis was obtained using single ion monitoring (SIM) of m/z of 2Ox (m/z = 664, 388) in LC-ESI-MS to improve sensitivity in detection (SI, Figure S20). Fmoc-Phe-OH was used as an internal standard. […] The amount of 2Ox decreased by around 20% in low glucose DMEM cell culture media after a day of incubation (SI, Figure S20). The decrease is presumably due to the disulfide exchange with free thiols inside the media (10% FCS and cysteine according to manufacturer’s specifications). Nevertheless, 2Ox is sufficiently stable to potential thiol exchange for subsequent biological studies.
(§1) The UV (280 nm) signals were integrated and normalized against the Fmoc-Phe standard as well as the SIM for 664 against the SIM of 388. The relative area was then plotted against the incubation time.
(§2) Figure S 20: Stability of 2Ox in glucose solution (GS) and low glucose cell media (LGM) detected by UV -Vis and ESI-MS. […]
(§3) expected due to free thiols in the media (FCS and cysteine).
(§4) 11. Stability in cytosol under oxidative/reductive conditions
(§5) Stability in liver cytosol […]

in vitro [2] = assay type: in vitro ADME; settings: s9 or cytosol
Protocol: Such differences in the physiological concentration of GSH have been exploited for controlled release. Thus, the GSH-induced cleavage of 1 mM of 2Ox was probed by incubation in commercially available liver cytosols spiked with physiologically relevant concentrations of GSH:GSSG (1:0.025 and 10:0.25 mM). The analysis was performed for up to 60 min and quantitative analysis was obtained using SIM in LC-MS (2Ox, m/z = 1328, 664) with Fmoc-Phe-OH as an internal standard (SI, Figure S22). […] On the other hand, at a concentration of 10 mM (molar ratio 10:1) the reaction was slightly slower due to longer equilibration time. […] Therefore, although the oxidized complex is stable over a longer period in serum (Figure 6a), GSH release could be induced in cytosolic conditions in cancer cells (Figure 6b), which would be important for controlled release as a drug delivery system.
as §1, §2, §3, §4, §5

[3] = Stability under oxidative conditions (0.1% hydrogen peroxide); assay type: physicochemical; settings: LC-MS SIM
Protocol: We further determined the stability of the hybridized sequences under oxidative conditions. The oxidized complex, 2Ox was incubated with 0.1% hydrogen peroxide ([…]). Aliquots were analyzed via LC-MS over different time intervals up to 60 min (SI, Figure S23) using SIM detection. Besides monitoring the decrease in the m/z of 2Ox, SIM also offers the possibility to identify degradation products and allowed us to map the chemical processes involved in the oxidative condition implemented. […] We observed complete conversion to compound 3 (Figure 6c,d). […]
12. Fluorescence quenching assay
Four stock solutions were prepared: 5 mM OSCSO, 2 μM DL488 -BSCSB in a phosphate buffer (100 mM, pH = 6.0, 2.5 mM TCEP) and 5 mM OSCSO, 2 µM DL488-BSCSB in a phosphate buffer (100 mM, pH = 7.4, 2.5 mM TCEP). […] FQA was measured immediately.
The procedure was repeated 3 times both for pH 6.0 and 7.4. Each point on the graph represents mean average of normalized fluorescence for one concentration from the series and error bars represent standard […]
The NMR spectra were recorded on a Bruker AVANCE III 850 MHz spectrometer with a 5 mm triple resonance TXI 1H/13C/15N probe equipped wit h a z-gradient. All spectra were measured at 298 K. The spectra were analyzed using Bruker TopSpin 3.6.1. […]

- metabolised at 24 h (in vitro [1]): ~20%
- remaining at 10 min, 1 mM (in vitro [2]): 80%
- starting material left ([3]; 1 mM in ammonium bicarbonate with 0.1% hydrogen peroxide (30 μM), after 10 min): no starting material is left
- dissociation into the single peptide sequences ([3]; 0.1% hydrogen peroxide (30 μM), up to 60 min): did not dissociate
SMILES: NC(=O)[C@H](Cc1ccc(B(O)O)cc1)NC(=O)[C@H](CO)NC(=O)[C@H](CSSC[C@H](NC(=O)[C@H](CO)NC(=O)[C@@H](N)Cc1ccc(O)c(O)c1)C(=O)N[C@@H](CO)C(=O)N[C@@H](Cc1ccc(O)c(O)c1)C(N)=O)NC(=O)[C@H](CO)NC(=O)[C@@H](N)Cc1ccc(B(O)O)cc1 [2Ox] (I: H-[Phe(4-B(OH)2)]SCS[Phe(4-B(OH)2)]-NH2 / II: H-[Dopa]SCS[Dopa]-NH2; disulfide I:3-II:3)

Source: publication PMC8532147, “Dual Stimuli-Responsive Dynamic Covalent Peptide Tags: Toward Sequence-Controlled Release in Tumor-like Microenvironments” (Journal of the American Chemical Society, 2021)
